Earlier results, collected in US8926084B2, “Polymerizable ink composition, ink cartridge containing the same, and inkjet printer” (Ricoh Company, Ltd., priority 2012, dated 2015).
Where two headings read alike, the source gives them in different places.

Settings: material evaluated as no skin sensitization or negative in MSDS has an SI value less than 3, cited from earlier work

SMILES	skin sensitization as mentioned in MSDS (listed as triethylene glycol divinyl ether)	skin sensitization as mentioned in MSDS
C=COCCOCCOCCOC=C [Triethylene glycol divinylether]	free from skin sensitization	
C=CC(=O)OCC(CC)(COC(=O)C=C)COC(=O)C=C [Trimethylol propane triacrylate (M-309), Trimethylol propane triacrylate]		Toagosei Company, Limited, skin sensitization causing
